# Data as given in patent US10022359B2, “1,9-diazaspiro undecane compounds having multimodal activity against pain” (LABORATORIOS DEL DR. ESTEVE S.A., priority 2014, dated 2018).
# Target: human σ1 receptor and human μ-opioid receptor
# Assay: Human σ1 receptor and human μ-opioid receptor radioligand assays (dual binding)
# Conditions: combined class for Ki-μ ([3H]-DAMGO, transfected CHO-K1 membranes) and Ki-σ1 ([3H](+)-pentazocine, transfected HEK-293 membranes)
row,SMILES,Ki [nM]
1,"O=C(c1ccccn1)N1CCOCC12CCN(CCc1ccccc1)CC2 [Example 11, (9-phenethyl-4-oxa-1,9-diazaspiro[5.5]undecan-1-yl)(pyridin-2-yl)methanone]",≥ 500
2,"O=C(c1ccncc1)N1CCOCC12CCN(CCc1ccccc1)CC2 [Example 13, (9-phenethyl-4-oxa-1,9-diazaspiro[5.5]undecan-1-yl)(pyridin-4-yl)methanone]",≥ 500
3,"O=C(c1cccnc1)N1CCOCC12CCN(CCc1ccccc1)CC2 [Example 14, (9-phenethyl-4-oxa-1,9-diazaspiro[5.5]undecan-1-yl)(pyridin-3-yl)methanone]",≥ 500
4,"O=C(c1cscn1)N1CCOCC12CCN(CCc1ccccc1)CC2 [Example 16, (9-phenethyl-4-oxa-1,9-diazaspiro[5.5]undecan-1-yl)(thiazol-4-yl)methanone]",≥ 500
5,"O=C(Cc1ccccn1)N1CCOCC12CCN(CCc1ccccc1)CC2 [Example 17, 1-(9-phenethyl-4-oxa-1,9-diazaspiro[5.5]undecan-1-yl)-2-(pyridin-2-yl)ethanone]",≥ 500
6,"O=C(Cc1ccncc1)N1CCOCC12CCN(CCc1ccccc1)CC2 [Example 19, 1-(9-phenethyl-4-oxa-1,9-diazaspiro[5.5]undecan-1-yl)-2-(pyridin-4-yl)ethanone]",≥ 500
7,"O=C(c1cncs1)N1CCOCC12CCN(CCc1ccccc1)CC2 [Example 20, (9-phenethyl-4-oxa-1,9-diazaspiro[5.5]undecan-1-yl)(thiazol-5-yl)methanone]",≥ 500
8,"O=C(Cc1cccnc1)N1CCOCC12CCN(CCc1ccccc1)CC2 [Example 22, 1-(9-phenethyl-4-oxa-1,9-diazaspiro[5.5]undecan-1-yl)-2-(pyridin-3-yl)ethanone]",≥ 500
9,"Fc1cnccc1CN1CCOCC12CCN(CCc1ccccc1)CC2 [Example 31, 1-((3-fluoropyridin-4-yl)methyl)-9-phenethyl-4-oxa-1,9-diazaspiro[5.5]undecane]",≥ 500
10,"O=[N+]([O-])c1cccc(CCN2CCC3(CC2)COCCN3c2ccccc2)c1 [Example 41, 9-(3-nitrophenethyl)-1-phenyl-4-oxa-1,9-diazaspiro[5.5]undecane]",≥ 500
11,"O=C(CN1CCC2(CC1)COCCN2C(=O)c1ccccc1)c1ccccc1 [Example 45, 2-(1-benzoyl-4-oxa-1,9-diazaspiro[5.5]undecan-9-yl)-1-phenylethanone]",≥ 500
12,"Nc1cccc(CCN2CCC3(CC2)COCCN3c2ccccc2)c1 [Example 50, 3-(2-(1-phenyl-4-oxa-1,9-diazaspiro[5.5]undecan-9-yl)ethyl)aniline]",≥ 500
13,"O=C(c1ccccc1)N1CCOCC12CCN(CC(O)c1ccccc1)CC2 (stereo not shown) [Example 51, (9-(2-hydroxy-2-phenylethyl)-4-oxa-1,9-diazaspiro[5.5]undecan-1-yl)(phenyl)methanone]",≥ 500
